Measurements from patent publication US9695155B2, “Herbicidal substituted pyrimidinyloxy benzene compounds” (E. I. DU PONT DE NEMOURS AND COMPANY, priority 2013, dated 2017).

Key:
[1] = system: chickweed; assay: Test D preemergence; assay type: in vivo, Stellaria media
From the text: (§1) Seeds of plant species selected from bluegrass (annual bluegrass, Poa annua), blackgrass (Alopecurus myosuroides), canarygrass (littleseed canarygrass, Phalaris minor), chickweed (common chickweed, Stellaria media), galium (catchweed bedstraw, Galium aparine), bromegrass, downy (downy bromegrass, Bromus tectorum), field poppy (Papaver rhoeas), field violet (Viola arvensis), green foxtail (Setaria viridis), deadnettle (henbit deadnettle, Lamium amplexicaule), Italian ryegrass (Lolium multiflorum), kochia (Kochia scoparia), lambsquarters (Chenopodium album), oilseed rape (Brassica napus), pigweed (Amaranthus retroflexus), chamomile (scentless chamomile, Matricaria inodora), Russian thistle (Salsola kali), speedwell (bird's-eye speedwell, Veronica persica), spring barley (Hordeum vulgare), spring wheat (Triticum aestivum), wild buckwheat (Polygonum convolvulus), wild mustard (Sinapis arvensis), wild oat (Avena fatua), wild radish (Raphanus raphanistrum), windgrass (Apera spica-venti), winter barley (Hordeum vulgare), and winter wheat (Triticum aestivum) were planted into a silt loam soil and treated preemergence with test chemicals formulated in a non-phytotoxic solvent mixture which included a surfactant.
(§2) At the same time, these species were planted in pots containing Redi-Earth® planting medium (Scotts Company, 14111 Scottslawn Road, Marysville, Ohio 43041) comprising spaghnum peat moss, vermiculite, wetting agent and starter nutrients and treated with postemergence applications of the test chemicals formulated in the same manner. Plants ranged in height from 2 to 18 cm (1- to 4-leaf stage). Treated plants and controls were maintained in a controlled growth environment for 7 to 21 days after which time all species were compared to controls and visually evaluated. Plant response ratings, summarized in Table D, are based on a scale of 0 to 100 where 0 is no effect and 100 is complete control. A dash (-) response means no test result.

[2] = system: field violet; assay: Test D preemergence; assay type: in vivo, Viola arvensis
From the text: as §1, §2

[3] = system: deadnettle; assay: Test D preemergence; assay type: in vivo, Lamium amplexicaule
From the text: as §1, §2

[4] = system: blackgrass; assay: Test D postemergence; assay type: in vivo, Alopecurus myosuroides
From the text: as §1, §2

[5] = system: galium; assay: Test D postemergence; assay type: in vivo, Galium aparine
From the text: as §1, §2

[6] = system: Italian ryegrass; assay: Test D postemergence; assay type: in vivo, Lolium multiflorum
From the text: as §1, §2

[7] = system: kochia; assay: Test D postemergence; assay type: in vivo, Kochia scoparia
From the text: as §1, §2

[8] = system: speedwell; assay: Test D postemergence; assay type: in vivo, Veronica persica
From the text: as §1, §2

[9] = system: wild buckwheat; assay: Test D postemergence; assay type: in vivo, Polygonum convolvulus
From the text: as §1, §2

[10] = 16 g ai/ha, scale 0 (no effect) to 100 (complete control)
[11] = Postemergence, 62 g ai/ha, scale 0 to 100 (0 no effect, 100 complete control)
[12] = Postemergence, 31 g ai/ha, scale 0 to 100 (0 no effect, 100 complete control)
[13] = Postemergence, 125 g ai/ha, scale 0 to 100 (0 no effect, 100 complete control)
[14] = Postemergence, 250 g ai/ha, scale 0 to 100 (0 no effect, 100 complete control)
[15] = postemergence, 16 g ai/ha, scale 0 to 100, 0 no effect, 100 complete control
[16] = 31 g ai/ha, scale 0 to 100 (0 no effect, 100 complete control)
[17] = 62 g ai/ha, scale 0 to 100 (0 no effect, 100 complete control)
[18] = 125 g ai/ha, scale 0 to 100 (0 no effect, 100 complete control)
[19] = 250 g ai/ha, scale 0 to 100 (0 no effect, 100 complete control)

Clc1cnc(Oc2ccccc2-n2cc(Cl)cn2)nc1 [Compound 3]
Plant response rating, Chickweed [1, 10]: 0 | Plant response rating, Chickweed ([1]; 62 g ai/ha, scale 0-100): 0 | Plant response rating, Chickweed ([1]; 250 g ai/ha, scale 0-100): 90 | Plant response rating, Field Violet [2, 10]: 40 | Plant response rating, Field Violet ([2]; 31 g ai/ha, scale 0-100): 80 | Plant response rating, Field Violet ([2]; 62 g ai/ha, scale 0-100): 80 | Plant response rating, Field Violet ([2]; 125 g ai/ha, scale 0-100): 85 | Plant response rating, Field Violet ([2]; 250 g ai/ha, scale 0-100): 85 | Plant response rating, Deadnettle [3, 10]: 30 | Plant response rating, Deadnettle ([3]; 31 g ai/ha, scale 0-100): 30 | Plant response rating, Deadnettle ([3]; 62 g ai/ha, scale 0-100): 40 | Plant response rating, Deadnettle ([3]; 125 g ai/ha, scale 0-100): 40 | Plant response rating, Deadnettle ([3]; 250 g ai/ha, scale 0-100): 50 | Plant response rating, Blackgrass [4, 11]: 0 | Plant response rating, Blackgrass [4, 12]: 0 | Plant response rating, Blackgrass [4, 13]: 0 | Plant response rating, Blackgrass [4, 14]: 10 | Plant response rating, Blackgrass [4, 15]: 70 | Plant response rating, Galium ([5]; 16 g ai/ha, scale 0-100): 40 | Plant response rating, Galium [5, 16]: 30 | Plant response rating, Galium [5, 17]: 40 | Plant response rating, Galium [5, 18]: 45 | Plant response rating, Galium [5, 19]: 75 | Plant response rating, Ryegrass, Italian ([6]; 16 g ai/ha, scale 0-100): 60 | Plant response rating, Ryegrass, Italian [6, 16]: 0 | Plant response rating, Ryegrass, Italian [6, 17]: 0 | Plant response rating, Ryegrass, Italian [6, 18]: 0 | Plant response rating, Ryegrass, Italian [6, 19]: 0 | Plant response rating, Kochia ([7]; 16 g ai/ha, scale 0-100): 20 | Plant response rating, Kochia [7, 16]: 5 | Plant response rating, Kochia [7, 17]: 5 | Plant response rating, Kochia [7, 18]: 25 | Plant response rating, Kochia [7, 19]: 55 | Plant response rating, Speedwell ([8]; 16 g ai/ha, scale 0-100): 60 | Plant response rating, Speedwell [8, 16]: 30 | Plant response rating, Speedwell [8, 17]: 45 | Plant response rating, Speedwell [8, 18]: 60 | Plant response rating, Speedwell [8, 19]: 75 | Plant response rating, Buckwheat, Wild [9, 11]: 50 | Plant response rating, Buckwheat, Wild [9, 12]: 10 | Plant response rating, Buckwheat, Wild [9, 13]: 60 | Plant response rating, Buckwheat, Wild [9, 14]: 80 | Plant response rating, Buckwheat, Wild [9, 15]: 50
